Series [1] is described as follows: Inhibition of Plasmodium falciparum cytochrome bc1 expressed in HEK293 cells by spectrophotometric analysis. Type of series: cell-based.
Series [2] can be described thus: Inhibition of Plasmodium falciparum NDH2 expressed in HEK293 cells by spectrophotometric analysis. Type of series: cell-based.
The subject of series [3] is Plasmodium berghei. Nature of the series: Antimalarial activity against blood stage Plasmodium berghei infected in mouse administered qd through oral gavage for 4 days. The conditions noted are these: 96 h.
In the next series the test system is Plasmodium yoelii. Put plainly: Antimalarial activity against blood stage Plasmodium yoelii infected in mouse administered qd through oral gavage for 4 days. Format: functional. The conditions noted are these: 96 h.
Series [4] deals with Plasmodium falciparum. Put plainly: Antimalarial activity against Plasmodium falciparum 3D7. Format: functional, organism-based.
Series [5] has as its system Plasmodium falciparum. Put plainly: Antimalarial activity against atovaquone-resistant Plasmodium falciparum TM90C2B. Format: functional, organism-based.
Series [6] can be described thus: Therapeutic index, ratio of IC50 for mouse/rat NG108 cells to IC50 chloroquine-resistant Plasmodium falciparum W2. Format: toxicity. The conditions noted are these: read-out: Ratio IC50.
The test system of series [7] is Plasmodium falciparum. Put plainly: Antimalarial activity against chloroquine-resistant Plasmodium falciparum W2 by [3H]-hypoxanthine incorporation assay. Type of series: functional, organism-based.
The subject of series [8] is Plasmodium berghei. Nature of the series: Antimalarial activity against Plasmodium berghei infected in po dosed mouse erythrocyte administered qd for 8 days by Giemsa staining based microscopic analysis. Format: functional. Particulars: 192 h.
Series [9] in a line: Therapeutic index, ratio of IC50 for mouse J774 cells to IC50 chloroquine-resistant Plasmodium falciparum W2. Format: toxicity. Particulars: read-out: Ratio IC50.
Series [10] is described as follows: Oral bioavailability in rat at 3 mg/kg. Particulars: in vivo. Format: ADME, organism-based.
In series [11] the test system is Plasmodium falciparum. Nature of the series: Antimalarial activity against Plasmodium falciparum FCR 3TC after 48 hrs. Format: functional, organism-based.
Series [12] in a line: Half life in human. Format: ADME.
Series [13] deals with Plasmodium falciparum. Put plainly: Antimalarial activity against Plasmodium falciparum 3D7 after 48 hrs. The conditions noted are these: 3D7, 48 h. Format: functional, organism-based.
Series [14] has as its system Plasmodium falciparum. Nature of the series: Antimalarial activity against Plasmodium falciparum 3D7 after 96 hrs. Particulars: 3D7, 96 h. Type of series: functional, organism-based.
Series [15] deals with Plasmodium falciparum. Nature of the series: Antimalarial activity against Plasmodium falciparum W2 after 48 hrs. Type of series: functional, organism-based. Particulars: W2, 48 h.
Series [16] has as its system Plasmodium falciparum. Nature of the series: Antimalarial activity against Plasmodium falciparum Dd2 assessed as reduction in parasite viability by [3H]-hypoxanthine incorporation assay. Type of series: functional, organism-based.
Series [17] relates to Plasmodium vinckei. Put plainly: Antimalarial activity against Plasmodium vinckei infected in ip dosed mouse assessed as reduction in parasitemia administered tid by 4-day suppression test. The conditions noted are these: 96 h. Format: functional.
Series [18] concerns Plasmodium vinckei. Nature of the series: Antimalarial activity against Plasmodium vinckei infected in po dosed mouse assessed as reduction in parasitemia administered tid by 4-day suppression test. Type of series: functional. The conditions noted are these: 96 h.
Series [19] can be described thus: Oral bioavailability in rat. Format: ADME, organism-based. The conditions noted are these: in vivo.
Series [20] has as its system Plasmodium berghei. Put plainly: Antimalarial activity against GFP-transfected Plasmodium berghei ANKA infected in mouse assessed as reduction in parasitemia at 30 mg/kg, po administered on day 1 post infection measured on day 3 post infection. The arrangement: scale not given: the % may be the effect or the level left. Format: functional.

The term IC50 denotes the concentration needed to halve the response being measured. One may read the ED50 as the dose that gives a 50% effect, or the effect in half of the subjects. Turning to `Cc1c(-c2ccc(-c3ccc(OC(F)(F)F)cc3)nc2)[nH]c2ccccc2c1=O`, the IC50 in series [1] was 15 nM. Moreover, the half-maximal inhibitory concentration (IC50) in series [2] is 14 nM. Further, in the series on Plasmodium berghei [3], it took a dose of 1.8 mg/kg to reach the 50% effect level (ED50) and the ED90 was 4.7 mg/kg.
In the series with Plasmodium yoelii, `COc1cc2[nH]c(C)c(-c3ccc(Oc4ccc(OC(F)(F)F)cc4)cc3)c(=O)c2cc1Cl` returned a 50% effective dose (ED50) of 0.1 mg/kg. Moreover, the ED90 in the series on Plasmodium yoelii turned out to be 0.15 mg/kg. Moreover, the IC50 with Plasmodium falciparum [4] is 5 nM; in the series with Plasmodium falciparum [5], 3 nM.
As to `O=C(C[C@H]1NCCC[C@@H]1O)Cn1cnc2ccccc2c1=O`, the selectivity ratio in [6] and in [9] was 3 in each case. For the same compound, in the series with Plasmodium falciparum [7], the IC50 is 2.5 nM. Further, the ED50 with Plasmodium berghei [8] stood at 2.3 mg/kg.
In general, bioavailability refers to the share of a dose that reaches the circulation, judged against a reference dose that is usually intravenous. Turning to `c1cc([C@H]2CC[C@]3(CC2)OO[C@]2(O3)C3CC4CC(C3)CC2C4)ccc1OCCN1CCOCC1` [ARTEFENOMEL], the bioavailability in series [10] is 76%.
As for `O=C1C(O)=C([C@H]2CC[C@H](c3ccc(Cl)cc3)CC2)C(=O)c2ccccc21` [ATOVAQUONE], it took a dose of 0.02 mg/kg to reach the 50% effect level with Plasmodium yoelii (ED50). In the series on Plasmodium yoelii, this compound came in with an ED90 of 0.04 mg/kg. The concentration for half-maximal inhibition (IC50) in series [1] is 2 nM; in the series on Plasmodium falciparum [4], 0.4 nM; in series [2], more than 10000 nM; with Plasmodium falciparum [5] it was more than 10000 nM.
Broadly, the half-life is the time needed for the level to fall by half in the phase considered. For the compound `CC[C@H]1OC(=O)[C@H](C)[C@@H](O[C@H]2C[C@@](C)(OC)[C@@H](O)[C@H](C)O2)[C@H](C)[C@@H](O[C@@H]2O[C@H](C)C[C@H](N(C)C)[C@H]2O)[C@](C)(O)C[C@@H](C)CN(C)[C@H](C)[C@@H](O)[C@]1(C)O` [AZITHROMYCIN], the IC50 in the series on Plasmodium falciparum [11] was 6500 nM. In series [12], this compound gave a half-life of 74 h.
For `CCC[C@@H]1C[C@@H](C(=O)N[C@@H]([C@H]2O[C@H](SC)[C@H](O)[C@@H](O)[C@H]2O)[C@H](C)Cl)N(C)C1` [CLINDAMYCIN], the results for the IC50 in the series on Plasmodium falciparum [13], in the series with Plasmodium falciparum [14] and in the series on Plasmodium falciparum [15] were more than 10000 nM, 450 nM and more than 10000 nM, respectively.
With `CC[C@H]1OC(=O)[C@H](C)[C@@H](O[C@H]2C[C@@](C)(OC)[C@@H](O)[C@H](C)O2)[C@H](C)[C@@H](O[C@@H]2O[C@H](C)C[C@H](N(C)C)[C@H]2O)[C@](C)(O)C[C@@H](C)C(=O)[C@H](C)[C@@H](O)[C@]1(C)O` [ERYTHROMYCIN], the IC50 in the series with Plasmodium falciparum [11] stood at 68000 nM.
For `O=CN(O)CCCP(=O)(O)O` [FOSMIDOMYCIN], the 50% inhibitory concentration (IC50) in the series on Plasmodium falciparum [16] was 290 nM. Also, the ED90 in the series on Plasmodium vinckei [17] turned out to be 5 mg/kg; in the series on Plasmodium vinckei [18], 20 mg/kg. The bioavailability in series [19] was 30%.
Regarding `CC(=O)N(O)CCCP(=O)(O)O` [FR-900098], in the series with Plasmodium falciparum [16], the half-maximal inhibitory concentration (IC50) turned out to be 90 nM.
With `CC(C)(N)CNC(=O)C[C@H]1CC[C@]2(CC1)OO[C@]1(O2)C2CC3CC(C2)CC1C3` [OZ277], the Activity in the series with Plasmodium berghei [20] was determined as 99%. The bioavailability in series [10] was determined as 13%.

The values are drawn from ChEMBL document CHEMBL4425082, “Antimalarial Chemotherapy: Natural Product Inspired Development of Preclinical and Clinical Candidates with Diverse Mechanisms of Action” (J Med Chem, 2016).
